Source: patent publication US20250381273A1, “Augmenting Mitochondria in Immune Cells for Improved Cancer Immunotherapy” (LEIBNIZ-INSTITUT FÜR IMMUNTHERAPIE (LIT), priority 2022, published 2025)

Tests used:
[1] = tested on: mouse Mito-DsRed BMSCs or CD8+ T cells; assay: Inhibitor drug treatment study, mouse co-culture; type: cell-based; conditions: 1-10 μM, data not shown
Method: (§1) For pharmacological inhibition studies, both mouse and human Mito-DsRed BMSCs or CD8+ T cells were treated with 1-10 μM of farnesyltransferase/geranylgeranyltransferase 1 inhibitor (L-778123) (Biomol) incubated separately in their respective basal media for 7 hrs before or during co-culture. Cell viability of the different drug treatments was determined using the Trypan Blue exclusion test and quantified manually using a hemacytometer. All experiments were performed on at least 3-6 biological replicates/donors per condition.

[2] = tested on: nanotube-mediated mitochondria transfer; conditions: Nature Nanotechnology (2022) 17, 98-106; cited from earlier work
[3] = tested on: human Mito-DsRed BMSCs or CD8+ T cells; assay: Inhibitor drug treatment study, human co-culture; type: cell-based; conditions: 1-10 μM, data not shown
Method: as §1

Which “mitochondrial transfer in co-culture” value [1] does the source give for `N#Cc1ccc(Cn2cncc2CN2CCN(c3cccc(Cl)c3)C(=O)C2)cc1` [L-788,123] here?
Its value is “confirmed that TNTs is a primary mediator of mitochondrial transfer”.

What about the nanotube-mediated mitochondria transfer [2] of the same compound?
Its nanotube-mediated mitochondria transfer is “partially block”.

And the “mitochondrial transfer in co-culture” value [3]?
Its value is “confirmed that TNTs is a primary mediator of mitochondrial transfer”.
